Laboratory results as given in patent publication US8901155B2, “Method for treating a TRPV1-mediated disease” (Santen Pharmaceutical Co., Ltd., priority 2007, dated 2014).
Values belong to the compound of their own block, whether it stands above or below them.

Columns and labels:
human TRPV1 = biological target: T1, human TRPV1 (Homo sapiens, UniProt Q8NER1); assay: Intracellular calcium influx in human TRPV1-expressing CHO cells; type: cell-based; conditions: final concentration 1 μM; relative to 1 μM capsaicin
T1 construct: expressed in transfected cells; host or cells: CHO cells
T1 sequence (Q8NER1 whole entry): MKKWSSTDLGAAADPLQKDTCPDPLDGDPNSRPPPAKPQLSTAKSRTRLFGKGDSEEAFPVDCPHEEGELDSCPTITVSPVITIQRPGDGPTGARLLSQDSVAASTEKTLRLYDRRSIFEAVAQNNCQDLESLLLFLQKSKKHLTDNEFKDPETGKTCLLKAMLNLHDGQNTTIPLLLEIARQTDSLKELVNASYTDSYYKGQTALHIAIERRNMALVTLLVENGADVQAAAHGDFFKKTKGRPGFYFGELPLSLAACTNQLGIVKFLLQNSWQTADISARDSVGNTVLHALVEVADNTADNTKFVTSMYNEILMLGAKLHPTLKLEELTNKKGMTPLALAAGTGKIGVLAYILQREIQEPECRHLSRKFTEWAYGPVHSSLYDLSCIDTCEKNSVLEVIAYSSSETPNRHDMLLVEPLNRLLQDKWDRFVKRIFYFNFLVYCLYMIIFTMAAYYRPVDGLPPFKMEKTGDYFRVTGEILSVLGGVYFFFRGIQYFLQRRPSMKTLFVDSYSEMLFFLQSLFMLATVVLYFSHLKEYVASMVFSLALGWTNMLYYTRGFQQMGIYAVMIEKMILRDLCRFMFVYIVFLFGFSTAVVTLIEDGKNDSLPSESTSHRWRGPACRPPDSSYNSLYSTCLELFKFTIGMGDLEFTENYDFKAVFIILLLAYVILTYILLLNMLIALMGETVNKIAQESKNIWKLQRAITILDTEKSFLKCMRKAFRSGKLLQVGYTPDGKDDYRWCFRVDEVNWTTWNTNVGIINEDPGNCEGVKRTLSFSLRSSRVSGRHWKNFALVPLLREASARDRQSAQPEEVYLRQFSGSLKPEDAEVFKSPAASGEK
Text: 3. Measurement of Intracellular Calcium Influx by Present Compound in Human TRPV1-Expressing Cells
It is known that TRPV1 is an ion channel receptor and by the activation of TRPV1, intracellular calcium ion influx occurs. According to the method of Phelps et al. (Eur. J. Pharmacol., 513: 57-66, 2005), the action of the present compound of activating human TRPV1 was studied using CHO cells transfected with a gene encoding human TRPV1.
CHO cells were suspended in DMEM and seeded in a culture plate at 3.5×10^4 cells/well. A test compound or a control compound was dissolved in DMSO to prepare a DMSO solution, and times concentrated test compound-containing liquid and control compound-containing liquid each of which was composed of HBSS and contained the thus prepared DMSO solution were prepared.
To the CHO cells, a calcium indicator was added, and the resulting mixture was incubated at 37° C. for 30 minutes, and then further incubated at 22° C. for 30 minutes to achieve equilibration. Subsequently, one-tenth volume of the test compound-containing liquid, control compound-containing liquid (final concentration: 1 μM), or HBSS solution was added thereto, and a change in the fluorescence intensity of the intracellular calcium concentration indicator was measured.
(Calcium influx(%))=((fluorescence intensity in the presence of test compound)−(background fluorescence intensity)/(fluorescence intensity in the presence of control compound)−(background fluorescence intensity))×100

vanilloid receptor = biological target: T2, vanilloid receptor (Rattus norvegicus, UniProt O35433); assay: Binding activity in rat spinal cord membrane specimen (3H-RTX competition)
T2 construct: Rat spinal cord was homogenized according to a common procedure; from tissue; host or cells: rat spinal cord membrane specimen
T2 sequence (O35433 whole entry): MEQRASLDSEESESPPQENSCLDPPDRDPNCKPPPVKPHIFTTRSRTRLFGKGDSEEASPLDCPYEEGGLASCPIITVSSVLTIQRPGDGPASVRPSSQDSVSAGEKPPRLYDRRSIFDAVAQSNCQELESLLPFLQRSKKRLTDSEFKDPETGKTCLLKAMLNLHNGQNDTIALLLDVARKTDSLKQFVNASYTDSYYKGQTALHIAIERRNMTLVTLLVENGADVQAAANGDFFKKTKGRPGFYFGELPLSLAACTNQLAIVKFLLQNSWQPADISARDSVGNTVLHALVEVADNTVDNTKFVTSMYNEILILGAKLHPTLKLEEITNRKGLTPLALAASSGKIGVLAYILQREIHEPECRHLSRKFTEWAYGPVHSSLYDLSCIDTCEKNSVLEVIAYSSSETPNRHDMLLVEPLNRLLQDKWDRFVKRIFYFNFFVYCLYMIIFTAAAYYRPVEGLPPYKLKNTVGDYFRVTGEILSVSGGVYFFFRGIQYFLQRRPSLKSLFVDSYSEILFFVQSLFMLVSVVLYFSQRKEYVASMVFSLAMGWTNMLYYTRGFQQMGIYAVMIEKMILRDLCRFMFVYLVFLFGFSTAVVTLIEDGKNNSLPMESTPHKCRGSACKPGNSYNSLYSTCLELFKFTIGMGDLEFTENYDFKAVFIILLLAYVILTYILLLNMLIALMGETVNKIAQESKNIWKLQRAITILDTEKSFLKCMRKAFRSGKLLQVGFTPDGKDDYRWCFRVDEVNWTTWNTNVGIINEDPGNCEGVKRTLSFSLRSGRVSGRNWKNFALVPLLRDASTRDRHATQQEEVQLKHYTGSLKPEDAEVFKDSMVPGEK

TRPV1 = biological target: T3, TRPV1 (Rattus norvegicus, UniProt O35433); assay: CGRP release in cultured rat dorsal root ganglion-derived neurons; type: cell-based
T3 construct: A dorsal root ganglion isolated from the spinal cord of a rat was sectioned and enzymatically treated; endogenous in cells; host or cells: primary cultured rat dorsal root ganglion neurons
T3 sequence (O35433 whole entry): as above
Text: 2. Effect of Present Compound on TRPV1 Agonist-Induced CGRP Release System Using Rat Dorsal Root Ganglion-Derived Neurons It is known that TRPV1 is expressed in dorsal root ganglion (DRG), and that by the activation of TRPV1, CGRP which is a neurotransmitter is released from a nerve terminal. According to the method of Ahluwalia et al., (European Journal of Neuroscience, Vol. 17, p. 2611, 2003), the CGRP releasing activity of the present compound in cultured neurons derived from rat DRG was studied. A test compound was weighed and dissolved in DMSO. The resulting solution was diluted with a medium, whereby a test compound-containing liquid was prepared. Each test compound-containing liquid was prepared such that 0.4% DMSO was contained therein as well. […] A dorsal root ganglion isolated from the spinal cord of a rat was sectioned and enzymatically treated with a collagenase/DNase I solution at 37° C. for 1 hour, and then with a trypsin/DNase I solution at 37° C. for 20 minutes. The released neurons were washed and collected, and then seeded in a poly-D-lysine/laminin-coated culture dish and cultured under conditions of 37° C. and 5% CO2 in a neuronal medium (NGF/NCS medium) supplemented with a nerve growth factor for 1 day. The medium was replaced with an NGF/NCS medium containing cytosine arabinoside, and the neurons were further cultured for 2 days. […]

[1] = Rat model of indomethacin-induced gastric mucosal injury; type: in vivo; conditions: indomethacin 30 mg/kg s.c., 6 hours
Description: 7. Effect in Rat Model of Gastrointestinal Dysfunction
A model of indomethacin-induced gastric mucosal injury is a model of gastrointestinal dysfunction widely used in the evaluation of drug efficacy of a therapeutic agent for ulcer. According to the method of Hoshino et al. (Folia Pharmacologica Japonica, Vol. 97, p. 287, 1991), the effect of the present compound in a rat model of indomethacin-induced gastric mucosal injury was studied.
A test compound-containing liquid was prepared immediately before use by suspending a test compound in a 1% aqueous methyl cellulose solution which is a vehicle. […]
To a rat fasted for 24 hours, the test compound-containing liquid, control compound-containing liquid, or vehicle (pathological control group) was orally administered, and immediately thereafter, indomethacin (Wako Pure Chemical Industries, Ltd.) was subcutaneously administered at a dose of 30 mg/kg. […] The length of the longest diameter of the site of a lesion dyed in blue including an ecchymosis was measured macroscopically using calipers.
A mean value of the sum of the longest diameters of the sites of lesions was obtained for each animal and was defined as an ulcer index. Further, a ratio of inhibition of gastric mucosal injury was calculated from the following equation. […]

SMILES: O=C(NCCCc1ccncc1)N(CCC(F)(F)F)CCC12CC3CC(CC(C3)C1)C2 [Compound 2, 1-[2-(1-adamantyl)ethyl]-3-[3-(4-pyridyl)propyl]-1-(3,3,3-trifluoropropyl)urea]
Calcium influx (%) (human TRPV1): 74.1%

SMILES: CCCN(CCCC12CC3CC(CC(C3)C1)C2)C(=O)NCCCc1ccncc1 [Compound 3, 1-[3-(1-adamantyl)propyl]-1-propyl-3-[3-(4-pyridyl)propyl]urea]
Calcium influx (%) (human TRPV1): 59.8%

SMILES: CCCCCN(CCC12CC3CC(CC(C3)C1)C2)C(=O)NC(C)CCc1ccncc1 (stereo not shown) [Compound 4, 1-[2-(1-adamantyl)ethyl]-3-[1-methyl-3-(4-pyridyl)propyl]-1-pentylurea]
Calcium influx (%) (human TRPV1): 43.9%

SMILES: COc1ccc2[nH]c([S+]([O-])Cc3ncc(C)c(OC)c3C)nc2c1 (stereo not shown) [Omeprazole, omeprazole, reference compound]
inhibition ratio (%) of gastric mucosal injury ([1]; 10 mg/kg oral): 69.22%

Further lines, with some results ahead:

Calcium influx (%) (human TRPV1): 76.6%
SMILES: CCCCCN(CCC12CC3CC(CC(C3)C1)C2)C(=O)NCC(C)Cc1ccncc1 (single isomer, unassigned; (+)) [Compound 6, (+)-1-[2-(1-adamantyl)ethyl]-3-[2-methyl-3-(4-pyridyl)propyl]-1-pentylurea]

IC50 (vanilloid receptor; 0.2 nM 3H-RTX liquid, 37° C. 60 minutes, mean±SEM of assays performed in triplicate, read-out: IC50 value to the vanilloid receptor in the rat spinal cord neuronal membrane specimen): 191 ± 28 nM | Ki (vanilloid receptor; from IC50, dissociation constant 0.046 nM, mean±SEM, read-out: Ki value to the vanilloid receptor in the rat spinal cord neuronal membrane specimen): 35.8 ± 5.2 nM | Hill coefficient (vanilloid receptor; nonlinear regression of inhibition curve): 1.83±0.449 | CGRP release in competitive inhibition assay with capsazepine (TRPV1; 10 μM (final concentration) capsazepine, FIG. 3): antagonized by capsazepine | CGRP release (TRPV1; absence of capsazepine, 10 minutes culture, FIG. 2): released CGRP in a dose-dependent manner
SMILES: CCCCCN(CCC12CC3CC(CC(C3)C1)C2)C(=O)NCCCc1ccncc1 [Compound 1, 1-[2-(1-adamantyl)ethyl]-1-pentyl-3-[3-(4-pyridyl)propyl]urea]
inhibition ratio (%) of gastric mucosal injury ([1]; 1 mg/kg oral): 67.41%

Calcium influx (%) (human TRPV1): 64.3%
SMILES: CCCCCN(CCC12CC3CC(CC(C3)C1)C2)C(=O)NCC(C)Cc1ccncc1 (stereo not shown) [Compound 5, 1-[2-(1-adamantyl)ethyl]-3-[2-methyl-3-(4-pyridyl)propyl]-1-pentylurea]

Calcium influx (%) (human TRPV1): 36.1%
SMILES: CCCCCN(CCC12CC3CC(CC(C3)C1)C2)C(=O)NC/C=C/c1ccncc1 [Compound 7, (E)-1-[2-(1-adamantyl)ethyl]-1-pentyl-3-[3-(4-pyridyl)-2-propenyl]urea]
